Patent US12187709B2 (Genentech, Inc., priority 2021, dated 2025)

Assays:
[1] = biological target: Human Cbl-b (residues 40-426) (Homo sapiens (Human), UniProt Q13191); assay: Cbl-b SPR assay; format: binding; settings: for Fold of selectivity: C-cbl SPR Kd vs Cbl-b SPR Kd; for Kd: SPR, 20° C.
In short: (§1)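 Where a chaser compound was used, % compound bound was calculated as (1−(RUT/RUT0))*100 relative to a prior chaser injection and fitted to a single exponential for kd. The single cycle titration (max 500 nM) was then fitted with kd held fixed.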

[2] = biological target: c-Cbl (Homo sapiens (Human), UniProt P22681); assay: C-Cbl LCK Ub TR-FRET assay (C-cbl Lck HTRF); format: biochemical
In short: (§2)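 Detection reagents added, brief spin, 20 min RT. IC50 fit normalized to no-LCK (low) and DMSO (high) controls.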

[3] = biological target: Cbl-b (Homo sapiens (Human), UniProt Q13191); assay: Cbl-b LCK Ub TR-FRET assay (Cbl-b Lck HTRF); format: biochemical; settings: for IC50: Cbl-b LCK Ub TR-FRET; for fold-selectivity (Cbl-b over C-cbl) / (fold-selectivity) Cbl-b and C-Cbl Selectivity: ratio C-cbl Lck HTRF IC50 / Cbl-b Lck HTRF IC50
In short: as §2

[4] = biological target: c-Cbl (residues 47-435) (Homo sapiens (Human), UniProt P22681); assay: c-Cbl SPR assay; format: binding; settings: 20° C.
In short: as §1

Chain of c-Cbl (residues 47-435) (P22681 47-435): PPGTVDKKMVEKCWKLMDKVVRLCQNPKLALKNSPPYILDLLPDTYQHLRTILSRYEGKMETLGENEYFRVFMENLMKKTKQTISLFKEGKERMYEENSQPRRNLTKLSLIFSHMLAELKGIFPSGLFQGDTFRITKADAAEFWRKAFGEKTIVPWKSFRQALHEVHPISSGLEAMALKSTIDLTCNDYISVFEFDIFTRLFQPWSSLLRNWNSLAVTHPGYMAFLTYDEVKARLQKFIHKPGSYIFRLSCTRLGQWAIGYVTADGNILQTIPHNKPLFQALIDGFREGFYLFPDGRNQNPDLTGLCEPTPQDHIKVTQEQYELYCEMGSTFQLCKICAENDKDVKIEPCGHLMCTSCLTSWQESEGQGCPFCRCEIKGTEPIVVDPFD
Chain of c-Cbl (P22681 47-435): as above
Chain of Cbl-b (Q13191 40-426): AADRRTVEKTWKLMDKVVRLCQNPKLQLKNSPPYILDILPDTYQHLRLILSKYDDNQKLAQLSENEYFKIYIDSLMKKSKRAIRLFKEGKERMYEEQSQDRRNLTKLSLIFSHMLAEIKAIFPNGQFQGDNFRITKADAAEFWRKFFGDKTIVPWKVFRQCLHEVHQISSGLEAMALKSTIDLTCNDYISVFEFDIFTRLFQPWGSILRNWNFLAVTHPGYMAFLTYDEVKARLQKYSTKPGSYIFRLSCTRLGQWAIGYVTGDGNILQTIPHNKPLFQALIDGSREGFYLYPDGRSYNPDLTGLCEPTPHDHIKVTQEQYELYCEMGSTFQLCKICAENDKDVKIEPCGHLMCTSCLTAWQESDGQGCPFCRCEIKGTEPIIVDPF
Chain of Human Cbl-b (residues 40-426) (Q13191 40-426): as above

Row | Fold of selectivity [1] | Kd [1] | IC50 [2] | IC50 [3] | fold-selectivity (Cbl-b over C-cbl) [3] | Kd [4] | IC50 ([3]; Example 121) | (fold-selectivity) Cbl-b and C-Cbl Selectivity [3] | SMILES
1 | 6.7× | 9.3 nM | 44 nM | 9.9 nM | 4.4x | 63 nM |  |  | Cn1cnnc1C1(c2cccc(N3Cc4c(cc([C@H](CO)NC5(C)CCC5)cc4C(F)(F)F)C3=O)c2)CCC1 (single isomer, unassigned) [Compound 148]
2 | 0.8× | 190 nM | 450 nM | 150 nM | 3.0x | 150 nM |  |  | CC(=O)C1CC([C@H](c2cccc(N3Cc4c(cc(CNC5(C)CCC5)cc4C(F)(F)F)C3=O)c2)c2nncn2C)C1 (single isomer, unassigned) [Compound 382]
3 | 5.1× | 1.3 nM | 11 nM |  |  | 6.6 nM | 6.8 nM | 1.7x | Cn1cnnc1[C@]1(c2cccc(N3Cc4c(cc(CNC5(C)CCC5)cc4C(F)F)C3=O)c2)C[C@H](Cl)C1 [Compound 446, 2-(3-((1s,3s)-3-chloro-1-(4-methyl-4H-1,2,4-triazol-3-yl)cyclobutyl)phenyl)-4-(difluoromethyl)-6-(((1-methylcyclobutyl)amino)methyl)isoindolin-1-one]
4 | 3.6× | 0.4 nM | 7.1 nM |  |  | 1.5 nM | 5.5 nM | 1.3x | Cn1cnnc1[C@@H](c1cccc(N2Cc3c(cc([C@H](NC4(C)CCC4)C4CCC4)cc3C(F)(F)F)C2=O)c1)C1COC1 (single isomer, unassigned) [Compound 432]
5 | 13× | 6 nM | 75 nM |  |  | 75 nM | 16 nM | 4.7x | CO[C@H]1C[C@](c2cccc(N3Cc4c(cc(CNCC5(CO)CC6CC6C5)cc4C(F)(F)F)C3=O)c2)(c2nncn2C)C1 (stereo partly drawn) [Compound 509, 6-((((3-(hydroxymethyl)bicyclo[3.1.0]hexan-3-yl)methyl)amino)methyl)-2-(3-((1r,3r)-3-methoxy-1-(4-methyl-4H-1,2,4-triazol-3-yl)cyclobutyl)phenyl)-4-(trifluoromethyl)isoindolin-1-one]
6 | 7.0× | 1.9 nM | 18 nM | 8.9 nM | 2.0x | 14 nM |  |  | Cn1cnnc1[C@@H](c1cccc(N2Cc3c(cc(CNC4(C)CCC4)cc3C(F)(F)F)C2=O)c1)C1COC1 (single isomer, unassigned) [Compound 164]
7 | 5.6× | 6.9 nM | 72 nM | 18 nM | 4.0x | 39 nM |  |  | CO[C@H]1C[C@](c2cc(N[C@@H](C)CC#N)cc(N3Cc4c(cc(CNC5(C)CCC5)cc4C(F)(F)F)C3=O)c2)(c2nncn2C)C1 (single isomer, unassigned) [Compound 225]
8 | 4.1× | 120 nM | 540 nM | 200 nM | (2.7x) | 490 nM |  |  | CO[C@H]1C[C@@H]([C@@H](c2cccc(N3Cc4c(cc(CN5CCN(C)C[C@@H]5C(C)C)cc4C(F)(F)F)C3=O)c2)c2nncn2C)C1 (stereo in doubt) [Compound 13, 6-(((S)-2-isopropyl-4-methylpiperazin-1-yl)methyl)-2-(3-((S)-((1 S,3S)-3-methoxycyclobutyl)(4-methyl-4H-1,2,4-triazol-3-yl)methyl)phenyl)-4-(trifluoromethyl)isoindolin-1-one]
9 | 10× | 5.7 nM | 43 nM |  |  | 57 nM | 14 nM | 3.1x | Cn1cnnc1[C@@H](c1cccc(N2Cc3c(cc(CNC4(C)CCC4)cc3C(F)F)C2=O)c1)C1CC(F)C1 (single isomer, unassigned) [Compound 458]
10 | 2.1× | 4.2 nM | 15 nM | 8.6 nM | 1.7x | 8.5 nM |  |  | Cn1cnnc1[C@]1(c2cccc(N3Cc4c(Cl)cc(CNC5(C)CCC5)cc4C3=O)c2)C[C@H](F)C1 [Compound 246, 4-chloro-2-(3-((1s,3s)-3-fluoro-1-(4-methyl-4H-1,2,4-triazol-3-yl)cyclobutyl)phenyl)-6-(((1-methylcyclobutyl)amino)methyl)isoindolin-1-one]
